Patent US20260116902A1, “NOVEL COMPOUND AS FUNCTIONAL ANTAGONIST FOR S1PR1 AND S1PR4” (NEXTGEN BIOSCIENCE CO., LTD., priority 2024, published 2026)

Biological target: T1, S1PR1 (Homo sapiens, UniProt P21453)
T1 construct: host or cells: CHO-K1 (PathHunter eXpress β-Arrestin GPCR cells)
Experiment: β-arrestin recruitment assay (PathHunter CHO-K1), S1PR1
Format: cell-based
Conditions: agonism
Description: To this end, each of the cell lines in which S1PR1, S1PR2, S1PR3, and S1PR4 are overexpressed (PathHunter® CHO-K1 eXpress β-Arrestin GPCR cells; DiscoverX, Fremont, USA) was seeded in a 384-well plate at 5000 cells/well and cultured using an AssayComplete™ Cell Culture Kit-107 (DiscoverX, Fremont, USA). […] A PathHunter detection reagent cocktail (DiscoverX, Fremont, USA) was added in accordance with the manufacturer's instructions and incubated for 1 hour, followed by measuring a chemiluminescent signal (luminescence reader, 0.1 to 1 second/well).

T1 sequence (P21453 whole entry): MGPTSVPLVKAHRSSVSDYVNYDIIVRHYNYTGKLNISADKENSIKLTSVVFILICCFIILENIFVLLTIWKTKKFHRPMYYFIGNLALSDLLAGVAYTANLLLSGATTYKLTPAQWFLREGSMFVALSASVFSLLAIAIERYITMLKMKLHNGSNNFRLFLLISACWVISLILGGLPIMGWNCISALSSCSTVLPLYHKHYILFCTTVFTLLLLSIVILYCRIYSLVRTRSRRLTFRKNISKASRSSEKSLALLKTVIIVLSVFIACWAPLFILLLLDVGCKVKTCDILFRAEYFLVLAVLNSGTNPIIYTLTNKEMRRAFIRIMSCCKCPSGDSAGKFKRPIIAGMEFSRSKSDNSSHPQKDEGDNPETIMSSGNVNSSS

In the case of CCCCCCCCCCCCC/C=C/[C@@H](O)[C@@H](N)COP(=O)(O)O [Compound S1P, sphingosine-1-phosphate], the EC50 is reported as 16.3 nM.
